Experimental data: PMC11087982, “In vitro and in vivo activities of a trithiolato-diRuthenium complex conjugated with sulfadoxine against the apicomplexan parasite Toxoplasma gondii” (International Journal for Parasitology: Drugs and Drug …, 2024)

Columns and labels:
[1] = tested on: T. gondii Me49 tachyzoites; experiment: Transmission electron microscopy of treated tachyzoites in HFF; assay type: cell-based, Toxoplasma gondii; conditions: 0.5 μM, 6 h of treatment
Experimental: We examined the cellular ultrastructure of T. gondii tachyzoites treated with RU-SDX by TEM as described previously ([Anghel et al., 2021]; [Desiatkina et al., 2020]). Briefly, confluent HFF grown in T25 flasks were infected with 10^5 T. gondii Me49 tachyzoites, and infected cultures were maintained for 24 h at 37 °C/5% CO2. Subsequently, the medium was removed and medium containing 0.5 μM RU-SDX or 0.05% DMSO (as solvent control) was added, and cultures were maintained at 37 °C/5% CO2 during 6, 24 or 48 h. At the different timepoints the samples were fixed and processed for TEM ([Anghel et al., 2021]; [Desiatkina et al., 2020]). For this, cultures were washed with 0.1 M sodium cacodylate buffer (pH 7.3) and fixed in 2% glutaraldehyde in cacodylate buffer for 10 min at room temperature (RT). The fixed infected monolayers were gently scraped from the flasks, transferred into Eppendorf tubes, washed with in ice-cold 0.1 M sodium cacodylate buffer and fixed in 2% glutaraldehyde in cacodylate buffer for 2 h at RT. Further preparation steps included post-fixation in 2% osmium tetroxide, pre-staining, stepwise dehydration in ethanol, and embedding in Epon-812 resin. In some instances, T25 flasks containing HFF monolayers infected with T. gondii Me49 tachyzoites were treated with FCCP and CCCP for 10 min at 80 and 50 μM, respectively, and samples were prepared for TEM as described above. […]

[2] = tested on: T. gondii β-gal tachyzoites; experiment: T. gondii β-Gal tachyzoite proliferation in HFF monolayers (β-galactosidase fluorometric assay); assay type: cell-based, Toxoplasma gondii
Experimental: Effects of drugs on the proliferative capacity of T. gondii tachyzoites were investigated using a transgenic T. gondii RH strain constitutively expressing β-Galactosidase (T. gondii β-Gal ([Dc et al., 1997]);). Assays were carried out in 96 well plates in the presence or absence of the different compounds. For the quantification of β-Galactosidase activity, a fluorometric assay was applied as previously described ([Desiatkina et al., 2021]; [Păunescu et al., 2021]).

HFF = HFF host cell cytotoxicity, Alamar blue viability assay; assay type: cell-based, human; conditions: 72 h, uninfected HFF
Experimental: To determine cytotoxicity of compounds on host cells, HFF were grown to confluency in 96 well plates and were treated with different concentrations of the drugs solubilized in medium during 72 h at 37 °C/5% CO2, or were treated with the corresponding concentration of DMSO only ([Desiatkina et al., 2020]; [Holzer et al., 2023]; [Păunescu et al., 2021]). The Alamar blue viability assay was used as previously described ([Desiatkina et al., 2020], [2021], [2022a], [2022b]; [Holzer et al., 2023]; [Păunescu et al., 2021]). In short, resazurin was added to each well at 0.01 mg/ml, and subsequently fluorescence of the produced resorufin was measured at excitation wavelength 544/20 nm and emission wavelength 590/20 nm using a Hidex Sense microplate reader (Hidex, Turku, Finland).

T. gondii ShSp1 oocysts = experiment: In vivo efficacy in CD1 mice orally infected with T. gondii ShSp1 oocysts (qPCR parasite load)
Source text: Female CD1 mice, 6 weeks of age, were purchased from Charles River (Sulzberg, Germany). They were housed in temperature-controlled animal facilities and were randomly distributed into 4 groups (8 mice/group, with 4 mice per cage), and food and water ad libitum. At the age of 8 weeks, mice were experimentally infected by peroral application of 120 TgShSp1 (type II) oocysts ([Imhof et al., 2021]). Placebo and RU-SDX treatments were started at 3 days p. i., with mice being treated orally by gavage. Group 1 (placebo control) received 100 μl corn oil supplemented with 10% DMSO, while group 2 (treatment group) was administered 5 mg/kg RU-SDX solubilized in 100 μl corn oil/10 % DMSO. These treatments were repeated on days 5, 7, 9 and 11 p. i. During the entire experiment mice were monitored for potential health issues at least twice per day. All mice were sacrificed at 30 days p. i. Brain, eyes, heart, and liver were collected and stored at −20 °C for subsequent DNA extraction and quantification of T. gondii load by quantitative PCR (qPCR).
Genomic DNA was extracted from the collected samples using the NucleoSpin DNA RapidLyze Kit (Macherey-Nagel, Oensingen, Switzerland) and DNA concentrations were quantified by the QuantiFluor double-stranded DNA (dsDNA) system (Promega, Madison, WI, USA) as previously described ([Imhof et al., 2021]). DNA concentrations were adjusted to 5 ng/μl, and qPCR reactions were performed in a final volume of 10 μl containing 1x SensiFast master mix (Bioline, Meridian Bioscience), 0.5 μM of reverse and forward primers, 0.1 μM of 529rpeQ-P probe, 0.3 mM dUTP, and one unit of heat-labile Uracil DNA Glycosylase (UDG) ([Hänggeli et al., 2022]). Amplification was performed in the Bio-Rad CFX 96 QPCR instRUment (Biorad) using the following thermal profile: (1) initial incubation of 10 min at 42 °C, followed by (2) denaturation step of 5 min at 95 °C and (3) 50 cycles of two-step amplification (10 s at 95 °C and 20 s at 62 °C). For quantification, a standard curve was made based on a 10-fold serial dilution of DNA from T. gondii, equivalent to tachyzoite numbers ranging from 1 × 10^4 to 1 per 4 μl. The parasite load was expressed as number of tachyzoites per 20 ng of DNA. Statistical analyses were performed using GraphPad Prism version 5.0 (GraphPad Software, La Jolla, CA, USA). Comparisons of the parasite burdens between groups were conducted with the non-parametric Kruskal-Wallis test, followed by the Mann-Whitney-U test.

[3] = Formulation of the compound for oral gavage (precipitation); assay type: physicochemical; conditions: compared with 5 mg/kg in corn oil containing 10% DMSO; data not shown
Experimental: A preliminary in vivo study was conducted in outbred CD1 mice that were experimentally infected with TgShSp1 oocysts.

**Q.** What does the source list for `CC(C)(C)c1ccc(C[S-])cc1.CC(C)(C)c1ccc(C[S-])cc1.COc1ncnc(NS(=O)(=O)c2ccc(NC(=O)Cc3ccc([S-])cc3)cc2)c1OC.Cc1ccc(C(C)C)cc1.Cc1ccc(C(C)C)cc1.[Cl-].[Ru+2].[Ru+2]` [RU-SDX]?
**A.** ultrastructural changes in tachyzoites (TEM) [1]: mitochondrial matrix appeared to have lost its characteristic electron dense texture in many areas; T. gondii proliferation in relation to the non-treated control ([2]; 0.1 μM): 77%; T. gondii proliferation in relation to the non-treated control ([2]; 1 μM): 2%; proliferation (% of control ± SD) ([2]; 2.5 μM): ^∗∗∗0 ± 0%; proliferation (% of control ± SD) ([2]; 5 μM): ^∗∗∗0 ± 0%; IC50 ([2]; drug treatment applied concomitantly to infection of HFF monolayers): 112 nM; IC50 ([2]; drug treatment initiated 3 h post infection, 95% CI in brackets): 145 nM; IC50 ([2]; drug treatment initiated concomitantly to infection, 95% CI in brackets): 112 nM; IC50 ([2]; drug treatment on already infected HFF): 145 nM; IC50 ([2]; tachyzoites grown in HFF monolayers, drug added concomitantly to or after infection): < 150 nM; viability (% of control ± SD) (HFF; 2.5 μM): 79 ± 4%; viability (% of control ± SD) (HFF; 5 μM): 64 ± 4%; viability (% of control ± SD) (HFF; 10 μM): 31 ± 9%; cerebral parasite load compared to placebo control group (T. gondii ShSp1 oocysts; 5 mg/kg oral gavage, 5 treatments from day 3 p.i., brain at 30 days p.i., P = 0.37): did not result in any reduction; parasite load in eyes compared to placebo control group (T. gondii ShSp1 oocysts; 5 mg/kg oral gavage, 5 treatments from day 3 p.i., eyes at 30 days p.i.): significantly reduced; parasite load in the heart compared to placebo control group (T. gondii ShSp1 oocysts; 5 mg/kg oral gavage, 5 treatments from day 3 p.i., heart at 30 days p.i.): significantly reduced; toxicity by clinical signs in treated mice (T. gondii ShSp1 oocysts; 5 mg/kg oral in corn oil/10% DMSO, 5 treatments): not toxic; behaviour at higher concentrations or in other vehicles (PBS ± DMSO, H2O ± DMSO, H2O + propane-1,2-diol) [3]: precipitation
